Test results: patent US20040043919A1, “Method for the treatment of neurological and neuropsychological disorders” (priority 2003, published 2004)
Each block holds one molecule with its values, some of them ahead of it.

Columns and labels:
[1] = system: rats; conditions: administered into the dorsal periaqueductal gray matter; cited from earlier work
[2] = target: T1, attractin from human plasma (Homo sapiens, UniProt O75882); experiment: MALDI-TOF analysis of peptide cleavage by purified attractin in presence or absence of isoleucyl-thiazolidine; assay type: biochemical; conditions: peptide 25 μM, 37° C.; for Cleavage of bioactive peptide by purified attractin: tricine/HCl pH 7.6, MALDI-TOF (FIG. 1)
T1 construct: was prepared from 100 ml plasma from healthy humans; tissue Baxter GmbH Germany, Plasmazentrum Halle (supplier of the plasma); host or cells: human plasma
T1 sequence (O75882 84-1272 isoform O75882-2 limits assumed): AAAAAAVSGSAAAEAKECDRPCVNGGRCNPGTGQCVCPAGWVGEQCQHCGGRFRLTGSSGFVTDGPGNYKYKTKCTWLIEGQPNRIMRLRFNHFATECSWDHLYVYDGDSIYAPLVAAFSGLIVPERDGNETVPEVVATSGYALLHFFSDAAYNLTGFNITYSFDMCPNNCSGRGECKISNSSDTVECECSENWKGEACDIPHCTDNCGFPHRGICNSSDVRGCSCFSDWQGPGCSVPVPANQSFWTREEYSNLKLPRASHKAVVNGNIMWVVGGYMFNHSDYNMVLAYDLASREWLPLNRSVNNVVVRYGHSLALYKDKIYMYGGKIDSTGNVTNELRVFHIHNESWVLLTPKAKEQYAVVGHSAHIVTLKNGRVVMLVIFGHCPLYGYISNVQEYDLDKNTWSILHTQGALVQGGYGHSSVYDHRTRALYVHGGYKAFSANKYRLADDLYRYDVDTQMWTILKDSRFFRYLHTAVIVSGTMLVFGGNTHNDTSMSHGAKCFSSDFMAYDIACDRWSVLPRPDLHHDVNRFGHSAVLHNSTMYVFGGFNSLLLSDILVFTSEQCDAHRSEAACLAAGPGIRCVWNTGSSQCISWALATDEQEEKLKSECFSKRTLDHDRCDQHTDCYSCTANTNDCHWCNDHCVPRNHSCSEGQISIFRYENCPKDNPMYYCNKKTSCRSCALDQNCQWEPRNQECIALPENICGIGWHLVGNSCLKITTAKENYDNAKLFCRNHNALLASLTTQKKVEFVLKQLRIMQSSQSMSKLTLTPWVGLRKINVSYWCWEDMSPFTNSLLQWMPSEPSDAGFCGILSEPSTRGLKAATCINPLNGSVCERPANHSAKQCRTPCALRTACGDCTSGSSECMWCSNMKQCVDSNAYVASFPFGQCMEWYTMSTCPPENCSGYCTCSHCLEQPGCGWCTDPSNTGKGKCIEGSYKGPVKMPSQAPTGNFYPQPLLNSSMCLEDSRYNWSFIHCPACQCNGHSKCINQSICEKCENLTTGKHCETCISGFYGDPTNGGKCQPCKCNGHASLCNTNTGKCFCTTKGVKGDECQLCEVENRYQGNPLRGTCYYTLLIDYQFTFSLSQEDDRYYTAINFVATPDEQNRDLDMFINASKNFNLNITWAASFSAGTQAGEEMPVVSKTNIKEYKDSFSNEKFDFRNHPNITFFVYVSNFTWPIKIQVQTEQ
Experimental: (§1) Attractin from human plasma (Baxter GmbH Germany, Plasmazentrum Halle) was prepared from 100 ml plasma from healthy humans. Matrix-assisted laser desorption/ionisation mass spectrometry was carried out using the Hewlett-Packard G2025 LD-TOF System.
To obtain spectra of peptides (25 μM) by the treatment of purified DP IV and attractin in the presence or absence of isoleucyl-thiazolidine (10 μM), substrates were incubated at 37° C. with 40 mM tricine/HCl buffer pH 7.6 and enzyme solution in a 2:2:1 ratio. Samples of the reaction mixtures were removed at various time intervals and mixed with equal volumes of the matrix solution. By mixing assay sample and matrix, the low pH of the matrix solution stopped the enzymatic reaction. A small volume of this mixture was transferred to a probe tip and immediately evaporated in a Hewlett-Packard G2024A Sample Prep Accessory.
(§2) In further studies the proteolytic activity of attractin has been investigated. […] In addition, the cleavage of bioactive peptides such as NP Y, RANTES, GIP, and Glucagon by purified attractin has been analyzed. […] Previously, differences within hydrolysis of the chemokine RANTES by DP IV and attractin have been described^4.

[3] = Anxiolytic effect on administration of the attractin inhibitor; assay type: in vivo; conditions: no method or data given
[4] = system: olfactory bulbectomized rats; conditions: 7-day i.c.v. administration; cited from earlier work
[5] = target: T1, attractin from human plasma; experiment: Proteolytic activity of purified attractin (chromogenic substrate kinetics); assay type: biochemical
Experimental: as §1, §2

Molecule: NC(N)=NCCC[C@@H](NC(=O)C(c1ccccc1)c1ccccc1)C(=O)NCc1ccc(O)cc1 [BIBP3226]
Time spent in active social interaction [1]: decreased the time spent in active social interaction

Molecule: isoleucyl-thiazolidine hemifumarate
Cleavage of NP Y by attractin in presence of inhibitor ([2]; isoleucyl-thiazolidine 10 μM, pH 7.6, MALDI-TOF (FIG. 1B)): the cleavage was suppressed
Anxiolytic effect [3]: exhibits an anxiolytic effect

Molecule: Neuropeptide Y [NP Y]
Cleavage of bioactive peptide by purified attractin [2]: capable of releasing the N-terminal dipeptide Tyr-Pro
Behavioral and neurotransmitter deficits [4]: attenuated behavioral and neurotransmitters deficits

Km [5]: 140 µM
Molecule: NCC(=O)N1CCCC1C(=O)Nc1ccc([N+](=O)[O-])cc1 (stereo not drawn) [Gly-Pro-pNA]

Molecule: RANTES1-15: synthetic N-terminal fragment 1-15 of the chemokine RANTES (SPYSSDTTPCCFAYI; UniProt P13501 24-38, looked up, fragment)
Cleavage of bioactive peptide by purified attractin [2]: capable of releasing sequentially the first (Ser-Pro) as well as the second dipeptide (Tyr-Ser)
